Patent US11865110B2, “Thrombin inhibitors, formulations, and uses thereof” (VERSEON INTERNATIONAL CORPORATION, priority 2018, dated 2024)

Key:
Rat plasma stability = format: in vitro ADME; details: Sprague-Dawley; SD rat plasma, 37° C., time points to 160 min; read-out: Rat Plasma Stability t1/2
Protocol: Alongside a positive control of propantheline bromide, 8 μL of a 1 mM solution of each test compound in DMSO was placed in two wells of a Nunc™ 96-well plate called the “dilution plate.” To one well, 392 μL of HyClone™ water was added and mixed by a pipette. To the other well, 392 μL of mouse or rat plasma stabilized with sodium citrate purchased from Innovative Research was added and mixed by a pipette. The dilution plate was kept covered to reduce solvent evaporation and heated in an incubator at 37° C. At each of the time points enumerated below, the plate was removed from the incubator and 50 μL of the test compound/water or test compound/plasma solutions were transferred to a unique, corresponding well in a “quench plate” (96-well Costar® plate) that contains 150 μL of a quench solution that contains an internal standard (20 uM diclofenac in acetonitrile). The dilution plate was then returned to the incubator. This process was performed at 0, 5, 10, 20, 40, 80, and 160 minutes from the original mixing of the test compounds with the water or plasma in the dilution plate. After the quenching of the 160-minute time point, the quench plate was then centrifuged at 4° C. at 1000×g for 10 minutes. 100 μL of the supernatant of each well were then transferred to corresponding unique wells in a “read plate” (96-well Costar® plate) that were filled with 100 μL of HyClone™ water. The plate was then sealed and analyzed via UHPLC using a 10-μL sample injection through a Phenomenex® Kinetex column pre-equilibrated with the loading buffer (95:5 water:acetonitrile). The parameters were as follows. Mobile Phase A: water, 0.025% formic acid. Mobile Phase B: acetonitrile, 0.025% formic acid. Flow Rate: 0.5 mL/min. […] Half-life (t1/2) times were computed by using a chi-square analysis to fit the peak areas to an exponential decay model for compound concentration as a function of time.

[1] = Mouse liver microsome stability; format: in vitro ADME, mouse (CD-1); details: pH 7.4; CD-1 mouse liver microsomes 0.5 mg/mL, NADPH, 37° C.; lower measurable bound 5
Protocol: (§1) In a 96-well Nunc™ plate, 1.5 μL of a 200 μM solution of the test compound in DMSO were placed in a well. This plate, the “Reaction Plate,” was then warmed to 37° C. in an oven. In a second 96-well Nunc™ plate, the “Quench Plate,” six wells were filled with 180 μL of an internal standard quench solution composed of 100 nM diclofenac in acetonitrile. These six wells correspond to the six time points for data collection: 0, 0.5, 5, 15, 30, and 60 minutes. “Assay Buffer” was prepared by combining 6.96 g potassium phosphate, dibasic, 1.36 g potassium phosphate, monobasic, and 0.30 g of magnesium chloride hexahydrate, then diluting to a final concentration of 500 mL in water and adjusting to pH 7.4, as needed. Assay Buffer was warmed to 37° C., and 12 mL were added to a 10-mg vial of NADPH. Then 300 μL of a 20 mg/mL liver microsome suspension were added to yield a 0.5 mg/mL liver microsome suspension. 300 μL of this liver microsome suspension was then added to the test compound solution in the Reaction Plate and mixed thoroughly with a pipette tip. At each time point, 30 μL of this mixture was transferred to the corresponding well of the Quench Plate. In between time points, the Reaction Plate was kept sealed and warmed in an incubator at 37° C. When the last time point had been completed, the quench plate was centrifuged at 4° C. at 1000×g for 10 minutes. Afterwards, 50 μL of the supernatant of each well was transferred to unique, corresponding wells of a 96-well Costar® plate, the “Analysis Plate,” filled with 150 μL of 50:50 acetonitrile:HyClone™ water. The Analysis Plate was then sealed with a pre-slit plate seal before analysis via an appropriate LCMS method with a 10 μL injection. The abstracted AUC data were then automatically plotted to calculate intrinsic clearance in μL/min/mg. This experiment was run alongside a positive and negative control. Due to the parameters of this procedure, one of skill in the art will appreciate that this assay has a lower measurable bound of 5 μL/min/mg; therefore, certain compounds have their clearances labeled as ≤5 μL/min/mg.

[2] = Rat liver microsome stability; format: in vitro ADME; details: Sprague-Dawley, pH 7.4; SD rat liver microsomes 0.5 mg/mL, NADPH, 37° C.; lower measurable bound 5
Protocol: as §1

Compound: CC(C)(C)C(=O)n1nc(-c2cccn(CCC(N)=O)c2=O)cc1NCc1ccc(Cl)s1 [Compound 8, 3-[3-(5-{[(5-chlorothiophen-2-yl)methyl]amino}-1-(2,2-dimethylpropanoyl)-1H-pyrazol-3-yl)-2-oxo-1,2-dihydropyridin-1-yl]propanamide]
- half-life at 20 µM (Rat plasma stability): 1.13 h
- microsomal CLint at 1 µM [1]: 100 µL/min/mg

Compound: O=C(O)Cn1cccc(-c2cc(NCc3ccc(Cl)s3)[nH]n2)c1=O [Compound 3, 2-[3-(5-{[(5-chlorothiophen-2-yl)methyl]amino}-1H-pyrazol-3-yl)-2-oxo-1,2-dihydropyridin-1-yl]acetic acid]
- half-life at 20 µM (Rat plasma stability): ≥ 5 h
- microsomal CLint at 1 µM [1]: ≤ 5 µL/min/mg
- microsomal CLint at 1 µM [2]: ≤ 5 µL/min/mg

Compound: CCC(C)(C)C(=O)n1nc(-c2cccn(CCC(=O)O)c2=O)cc1NCc1ccc(Cl)s1 [Compound 11, 3-[3-(5-{[(5-chlorothiophen-2-yl)methyl]amino}-1-(2,2-dimethylbutanoyl)-1H-pyrazol-3-yl)-2-oxo-1,2-dihydropyridin-1-yl]propanoic acid]
- half-life at 20 µM (Rat plasma stability): ≥ 5 h
- microsomal CLint at 1 µM [1]: 31 µL/min/mg
- microsomal CLint at 1 µM [2]: 14 µL/min/mg

Compound: O=C(O)CCn1cccc(-c2cc(NCc3ccc(Cl)s3)n(C(=O)c3ccoc3)n2)c1=O [Compound 12, 3-[3-(5-{[(5-chlorothiophen-2-yl)methyl]amino}-1-(furan-3-carbonyl)-1H-pyrazol-3-yl)-2-oxo-1,2-dihydropyridin-1-yl]propanoic acid]
- half-life at 20 µM (Rat plasma stability): 3 h
- microsomal CLint at 1 µM [1]: ≤ 5 µL/min/mg

Compound: CC(C)(C)C(=O)n1nc(-c2cccn(CCC(=O)O)c2=O)cc1NCc1ccc(Cl)s1 [Compound 1, 3-[3-(5-{[(5-chlorothiophen-2-yl)methyl]amino}-1-(2,2-dimethylpropanoyl)-1H-pyrazol-3-yl)-2-oxo-1,2-dihydropyridin-1-yl]propanoic acid]
- half-life at 20 µM (Rat plasma stability): 1.13 to 1.83 h
- microsomal CLint at 1 µM [1]: 5 to 11 µL/min/mg
- microsomal CLint at 1 µM [2]: ≤ 5 µL/min/mg

Compound: CC(C)(C)C(=O)n1nc(-c2cccn(CCCC(=O)O)c2=O)cc1NCc1ccc(Cl)s1 [Compound 5, 4-[3-(5-{[(5-chlorothiophen-2-yl)methyl]amino}-1-(2,2-dimethylpropanoyl)-1H-pyrazol-3-yl)-2-oxo-1,2-dihydropyridin-1-yl]butanoic acid]
- half-life at 20 µM (Rat plasma stability): 1.13 h
- microsomal CLint at 1 µM [1]: 29 µL/min/mg
- microsomal CLint at 1 µM [2]: 10 µL/min/mg

Compound: O=C(O)CCn1cccc(-c2cc(NCc3ccc(Cl)s3)[nH]n2)c1=O [Compound 2, 3-[3-(5-{[(5-chlorothiophen-2-yl)methyl]amino}-1H-pyrazol-3-yl)-2-oxo-1,2-dihydropyridin-1-yl]propanoic acid]
- half-life at 20 µM (Rat plasma stability): ≥ 5 h
- microsomal CLint at 1 µM [1]: ≤ 5 µL/min/mg
- microsomal CLint at 1 µM [2]: ≤ 5 µL/min/mg

Compound: CC(C)(C)C(=O)n1nc(-c2cccn(CC(=O)O)c2=O)cc1NCc1ccc(Cl)s1 [Compound 4, 2-[3-(5-{[(5-chlorothiophen-2-yl)methyl]amino}-1-(2,2-dimethylpropanoyl)-1H-pyrazol-3-yl)-2-oxo-1,2-dihydropyridin-1-yl]acetic acid]
- half-life at 20 µM (Rat plasma stability): 3 h
- microsomal CLint at 1 µM [1]: ≤ 5 µL/min/mg
- microsomal CLint at 1 µM [2]: ≤ 5 µL/min/mg

Compound: CC(C)(N)Cn1cccc(-c2cc(NCc3ccc(Cl)s3)n(C(=O)c3ccoc3)n2)c1=O [Compound 9, 1-(2-amino-2-methylpropyl)-3-(5-{[(5-chlorothiophen-2-yl)methyl]amino}-1-(furan-3-carbonyl)-1H-pyrazol-3-yl)-1,2-dihydropyridin-2-one]
- half-life at 20 µM (Rat plasma stability): 1.13 h
- microsomal CLint at 1 µM [1]: 11 µL/min/mg
- microsomal CLint at 1 µM [2]: ≤ 5 µL/min/mg
